Measurements taken from US20150337013A1, “NOVEL ANTIBACTERIAL AGENTS FOR THE TREATMENT OF GRAM POSITIVE INFECTIONS” (priority 2008, published 2015).

Assays:
[1] = test system: Enterococcus faecalis EFS.201 (ATCC 49452); assay type: cell-based; conditions: ATCC 49452
Experimental: (§1) Compounds according to Formula I were tested for antimicrobial activity against a panel of organisms. Aerobic organisms, Staphylococcus aureus, Enterococcus faecalis and E. faecium, were tested by broth microdilution according to Clinical and Laboratory Standards Institute (CLSI) document M7-A7 (Clinical and Laboratory Standards Institute. Methods for Dilution Antimicrobial Susceptibility Tests for Bacteria that Grow Aerobically; Approved Standard—Seventh Edition. CLSI document M7-A7 [ISBN 1-56238-587-9]. Clinical and Laboratory Standards Institute, 940 West Valley Road, Suite 1400, Wayne, Pa. 19087-1898 USA, 2006) with modifications as described below. Mueller Hinton Broth (MHBc) was supplemented with 50 mg/L calcium (equivalent to human physiological levels of calcium) and assay plates were incubated 18-20 hours at 37° C. with aeration (200 rpm).
(§2) In all cases the final concentration of dimethyl sulfoxide incubated with cells is less than or equal to 1%. For minimum inhibitory concentration (MIC) calculations, 2-fold dilutions of compounds were added to wells of a microtiter plate containing 5×10^5 bacteria in a final volume of 100 μL of media. Following incubation, (18-20 hours at 37° C. with aeration at 200 rpm) growth was confirmed visually by placing plates over a viewing apparatus (stand with a mirror underneath) and then the optical density (OD600) was measured using a SpectraMax 340PC^384 plate reader. Growth was defined as turbidity that could be detected with the naked eye or achieving minimum OD600of 0.1. MIC values (in μg/mL) were defined as the lowest concentration producing no visible turbidity.

[2] = test system: Enterococcus faecium EFM.384, Daptomycin resistant mutant (14-A); assay type: cell-based; conditions: MHBc with 50 mg/L calcium, 18-20 hours at 37° C.
Experimental: as §1, §2

[3] = test system: Staphylococcus aureus SAU.42 (ATCC 29213); assay type: cell-based; conditions: ATCC 29213
Experimental: as §1, §2

[4] = test system: Enterococcus faecium EFM.14 (ATCC 6569); assay type: cell-based; conditions: ATCC 6569
Experimental: as §1, §2

[5] = test system: Staphylococcus aureus SAU.399 (ATCC 43300), Methicillin and Oxacillin Resistant; assay type: cell-based; conditions: ATCC 43300
Experimental: as §1, §2

[6] = test system: Staphylococcus aureus SAU.278, Daptomycin resistant mutant (D10); assay type: cell-based; conditions: MHBc with 50 mg/L calcium, 18-20 hours at 37° C.
Experimental: as §1, §2

[7] = test system: Enterococcus faecalis EFS.312, Daptomycin resistant mutant (EFA); assay type: cell-based; conditions: MHBc with 50 mg/L calcium, 18-20 hours at 37° C.
Experimental: as §1, §2

SMILES	Efs201 MIC [1]	Efm384 MIC [2]	Sa42 MIC [3]	Efm14 MIC [4]	Sa399 MIC [5]	Sa278 MIC [6]	Efs312 MIC [7]	C. diff MIC90 (Clostridium difficile)
CCCCOc1ccc(-c2ccc(C(=O)N[C@@H](Cc3c[nH]c4ccccc34)C(=O)N[C@H](CC(N)=O)C(=O)N[C@@H](CC(=O)O)C(=O)N[C@@H]3C(=O)NCC(=O)N[C@@H](CCCN)C(=O)N[C@@H](CC(=O)O)C(=O)N[C@H](C)C(=O)N[C@@H](CC(=O)O)C(=O)NCC(=O)N[C@H](CO)C(=O)N[C@@H]([C@H](C)CC(=O)O)C(=O)N[C@@H](CC(=O)c4ccccc4N)C(=O)O[C@@H]3C)cc2)cc1 [Compound 60]	4 µg/mL	16 µg/mL	1 µg/mL	4 µg/mL	4 µg/mL	8 µg/mL	>32 µg/mL	–
CCCCCCCCC(=O)N[C@@H](Cc1c[nH]c2ccccc12)C(=O)N[C@H](CC(N)=O)C(=O)N[C@@H](CC(=O)O)C(=O)N[C@@H]1C(=O)NCC(=O)N[C@@H](CCCN)C(=O)N[C@@H](CC(=O)O)C(=O)N[C@H](C)C(=O)N[C@@H](CC(=O)O)C(=O)NCC(=O)N[C@H](CO)C(=O)N[C@@H]([C@H](C)CC(=O)O)C(=O)N[C@@H](CC(=O)c2ccccc2N)C(=O)O[C@@H]1C [Compound 1]	32 µg/mL	>32 µg/mL	8 µg/mL	32 µg/mL	2 µg/mL	>32 µg/mL	>32 µg/mL	–
CCCCCCCCCC(C)(C)C(=O)N[C@@H](Cc1c[nH]c2ccccc12)C(=O)N[C@H](CC(N)=O)C(=O)N[C@@H](CC(=O)O)C(=O)N[C@@H]1C(=O)NCC(=O)N[C@@H](CCCN)C(=O)N[C@@H](CC(=O)O)C(=O)N[C@H](C)C(=O)N[C@@H](CC(=O)O)C(=O)NCC(=O)N[C@H](CO)C(=O)N[C@@H]([C@H](C)CC(=O)O)C(=O)N[C@@H](CC(=O)c2ccccc2N)C(=O)O[C@@H]1C [Compound 12]	16 µg/mL	>32 µg/mL	4 µg/mL	8 µg/mL	2 µg/mL	8 µg/mL	32 µg/mL	–
CCCCCCCC(C)C(=O)N[C@@H](Cc1c[nH]c2ccccc12)C(=O)N[C@H](CC(N)=O)C(=O)N[C@@H](CC(=O)O)C(=O)N[C@@H]1C(=O)NCC(=O)N[C@@H](CCCN)C(=O)N[C@@H](CC(=O)O)C(=O)N[C@H](C)C(=O)N[C@@H](CC(=O)O)C(=O)NCC(=O)N[C@H](CO)C(=O)N[C@@H]([C@H](C)CC(=O)O)C(=O)N[C@@H](CC(=O)c2ccccc2N)C(=O)O[C@@H]1C (stereo partly drawn) [Compound 13]	16 µg/mL	>32 µg/mL	2 µg/mL	16 µg/mL	1 µg/mL	32 µg/mL	>32 µg/mL	–
CCCCCCC1CCC(c2ccc(C(=O)N[C@@H](Cc3c[nH]c4ccccc34)C(=O)N[C@H](CC(N)=O)C(=O)N[C@@H](CC(=O)O)C(=O)N[C@@H]3C(=O)NCC(=O)N[C@@H](CCCN)C(=O)N[C@@H](CC(=O)O)C(=O)N[C@H](C)C(=O)N[C@@H](CC(=O)O)C(=O)NCC(=O)N[C@H](CO)C(=O)N[C@@H]([C@H](C)CC(=O)O)C(=O)N[C@@H](CC(=O)c4ccccc4N)C(=O)O[C@@H]3C)cc2)CC1 (single isomer, unassigned) [54 isomer II]	2 µg/mL	–	1 µg/mL	1 µg/mL	1 µg/mL	–	–	4 µg/mL
CC(C)Sc1ccc(-c2csc(C(=O)N[C@@H](Cc3c[nH]c4ccccc34)C(=O)N[C@H](CC(N)=O)C(=O)N[C@@H](CC(=O)O)C(=O)N[C@@H]3C(=O)NCC(=O)N[C@@H](CCCN)C(=O)N[C@@H](CC(=O)O)C(=O)N[C@H](C)C(=O)N[C@@H](CC(=O)O)C(=O)NCC(=O)N[C@H](CO)C(=O)N[C@@H]([C@H](C)CC(=O)O)C(=O)N[C@@H](CC(=O)c4ccccc4N)C(=O)O[C@@H]3C)c2)cc1 [Compound 55]	2 µg/mL	8 µg/mL	0.5 µg/mL	2 µg/mL	0.25 µg/mL	4 µg/mL	>32 µg/mL	–
CCCCCc1ccc(C(=O)N[C@@H](Cc2c[nH]c3ccccc23)C(=O)N[C@H](CC(N)=O)C(=O)N[C@@H](CC(=O)O)C(=O)N[C@@H]2C(=O)NCC(=O)N[C@@H](CCCN)C(=O)N[C@@H](CC(=O)O)C(=O)N[C@H](C)C(=O)N[C@@H](CC(=O)O)C(=O)NCC(=O)N[C@H](CO)C(=O)N[C@@H]([C@H](C)CC(=O)O)C(=O)N[C@@H](CC(=O)c3ccccc3N)C(=O)O[C@@H]2C)cc1 [Compound 31]	16 µg/mL	>32 µg/mL	4 µg/mL	16 µg/mL	4 µg/mL	>32 µg/mL	>32 µg/mL	–
CCCCCCCCCCCC(=O)N[C@@H](Cc1c[nH]c2ccccc12)C(=O)N[C@H](CC(N)=O)C(=O)N[C@@H](CC(=O)O)C(=O)N[C@@H]1C(=O)NCC(=O)N[C@@H](CCCN)C(=O)N[C@@H](CC(=O)O)C(=O)N[C@H](C)C(=O)N[C@@H](CC(=O)O)C(=O)NCC(=O)N[C@H](CO)C(=O)N[C@@H]([C@H](C)CC(=O)O)C(=O)N[C@@H](CC(=O)c2ccccc2N)C(=O)O[C@@H]1C [Compound 3]	0.5 µg/mL	4 µg/mL	0.5 µg/mL	1 µg/mL	1 µg/mL	1 µg/mL	32 µg/mL	–
CC(C)CCCCCCC(=O)N[C@@H](Cc1c[nH]c2ccccc12)C(=O)N[C@H](CC(N)=O)C(=O)N[C@@H](CC(=O)O)C(=O)N[C@@H]1C(=O)NCC(=O)N[C@@H](CCCN)C(=O)N[C@@H](CC(=O)O)C(=O)N[C@H](C)C(=O)N[C@@H](CC(=O)O)C(=O)NCC(=O)N[C@H](CO)C(=O)N[C@@H]([C@H](C)CC(=O)O)C(=O)N[C@@H](CC(=O)c2ccccc2N)C(=O)O[C@@H]1C [Compound 9]	4 µg/mL	32 µg/mL	0.5 µg/mL	4 µg/mL	0.5 µg/mL	8 µg/mL	>32 µg/mL	–
C[C@H](CC(=O)O)[C@@H]1NC(=O)[C@@H](CO)NC(=O)CNC(=O)[C@H](CC(=O)O)NC(=O)[C@@H](C)NC(=O)[C@H](CC(=O)O)NC(=O)[C@H](CCCN)NC(=O)CNC(=O)[C@@H](NC(=O)[C@H](CC(=O)O)NC(=O)[C@@H](CC(N)=O)NC(=O)[C@H](Cc2c[nH]c3ccccc23)NC(=O)Cc2ccc(-c3ccc(Cl)cc3)cc2)[C@@H](C)OC(=O)[C@H](CC(=O)c2ccccc2N)NC1=O [Compound 65]	8 µg/mL	>32 µg/mL	2 µg/mL	8 µg/mL	2 µg/mL	16 µg/mL	>32 µg/mL	–
CCCSc1ccc(-c2csc(C(=O)N[C@@H](Cc3c[nH]c4ccccc34)C(=O)N[C@H](CC(N)=O)C(=O)N[C@@H](CC(=O)O)C(=O)N[C@@H]3C(=O)NCC(=O)N[C@@H](CCCN)C(=O)N[C@@H](CC(=O)O)C(=O)N[C@H](C)C(=O)N[C@@H](CC(=O)O)C(=O)NCC(=O)N[C@H](CO)C(=O)N[C@@H]([C@H](C)CC(=O)O)C(=O)N[C@@H](CC(=O)c4ccccc4N)C(=O)O[C@@H]3C)c2)cc1 [Compound 56]	8 µg/mL	32 µg/mL	2 µg/mL	8 µg/mL	2 µg/mL	8 µg/mL	>32 µg/mL	–
